The test system of series [1] is Mus musculus. In words: Body weight change of test animals to that of control was determined after injection at 12.5 mg/kg intraperitoneally in CD2F1 mice. The settings on record: route intraperitoneal. It counts as functional.
Series [2] has as its system Mus musculus. In words: Body weight change of test animals to that of control was determined after injection at 3.16 mg/kg intraperitoneally in CD2F1 mice. Format: functional. As to conditions: route intraperitoneal.
Series [3] relates to Mus musculus. Briefly: Body weight change of test animals to that of control was determined after injection at 6.25 mg/kg intraperitoneally in CD2F1 mice. It counts as functional. As to conditions: route intraperitoneal.
In series [4] the test system is Mus musculus. In words: Toxicity day survivors was determined by the ratio of animals survived to that of test animals at 6.25 mg/kg intraperitoneally in CD2F1 mice; 6/6. The settings on record: in vivo, ip. It counts as organism-based. Also on record: dose 6.25 mg/kg, route intraperitoneal.
The subject of series [5] is Mus musculus. Briefly: Toxicity day survivors was determined by the ratio of animals survived to that of test animals at 50 mg/kg intraperitoneally in CD2F1 mice; 6/6. Format: organism-based. The arrangement: dose 50 mg/kg, route intraperitoneal. The settings on record: in vivo, ip.
Series [6] has as its system Mus musculus. Briefly: Net log cell kill was determined after injecting 12.5 mg/kg intraperitoneally in CD2F1 mice. It counts as functional. The settings on record: route intraperitoneal.
For series [7], the system named is Mus musculus. Briefly: Toxicity day survivors was determined by the ratio of animals survived to that of test animals at 25 mg/kg intraperitoneally in CD2F1 mice; 6/6. As to conditions: in vivo, ip. Also on record: dose 25 mg/kg, route intraperitoneal. Format: organism-based.
In series [8] the test system is Mus musculus. Briefly: Body weight change of test animals to that of control was determined after injection at 50 mg/kg intraperitoneally in CD2F1 mice. It counts as functional. The settings on record: route intraperitoneal.
In series [9] the test system is Mus musculus. Briefly: Ratio of treated to that of untreated tumor-bearing control animals at 3.16 mg/kg intraperitoneally in CD2F1 mice was determined. Format: functional. As to conditions: route intraperitoneal.
Series [10] concerns Mus musculus. In words: Toxicity day survivors was determined by the ratio of animals survived to that of test animals at 100 mg/kg intraperitoneally in CD2F1 mice; 3/6. Format: organism-based. The arrangement: dose 100 mg/kg, route intraperitoneal. The settings on record: in vivo, ip.
Series [11] relates to Mus musculus. Briefly: Body weight change of test animals to that of control was determined after injection at 25 mg/kg intraperitoneally in CD2F1 mice. Format: functional. As to conditions: route intraperitoneal.
In series [12] the test system is Mus musculus. In words: Toxicity day survivors was determined by the ratio of animals survived to that of test animals at 3.16 mg/kg intraperitoneally in CD2F1 mice; 6/6. It counts as organism-based. Also on record: dose 3.16 mg/kg, route intraperitoneal. As to conditions: in vivo, ip.
For series [13], the system named is Mus musculus. In words: Toxicity day survivors was determined by the ratio of animals survived to that of test animals at 12.5 mg/kg intraperitoneally in CD2F1 mice; 6/6. The arrangement: dose 12.5 mg/kg, route intraperitoneal. Format: organism-based. The settings on record: in vivo, ip.
Series [14] has as its system Mus musculus. Briefly: Ratio of treated to that of untreated tumor-bearing control animals at 25 mg/kg intraperitoneally in CD2F1 mice was determined. The settings on record: route intraperitoneal. Format: functional.
In series [15] the test system is Mus musculus. Briefly: Body weight change of test animals to that of control was determined after injection at 100 mg/kg intraperitoneally in CD2F1 mice. It counts as functional. As to conditions: route intraperitoneal.
In series [16] the test system is Mus musculus. Briefly: Ratio of treated to that of untreated tumor-bearing control animals at 6.25 mg/kg intraperitoneally in CD2F1 mice was determined. Format: functional. The settings on record: route intraperitoneal.
For series [17], the system named is Mus musculus. In words: Net log cell kill was determined after injecting 3.16 mg/kg intraperitoneally in CD2F1 mice. Format: functional. As to conditions: route intraperitoneal.
Series [18] concerns Mus musculus. Briefly: Net log cell kill was determined after injecting 25 mg/kg intraperitoneally in CD2F1 mice. Format: functional. As to conditions: route intraperitoneal.
Series [19] has as its system Mus musculus. Briefly: Net log cell kill was determined after injecting 6.25 mg/kg intraperitoneally in CD2F1 mice. It counts as functional. The settings on record: route intraperitoneal.
Series [20] concerns Mus musculus. In words: Ratio of treated to that of untreated tumor-bearing control animals at 12.5 mg/kg intraperitoneally in CD2F1 mice was determined. It counts as functional. The settings on record: route intraperitoneal.
The test system of series [21] is Mus musculus. Briefly: Toxicity day survivors was determined by the ratio of animals survived to that of test animals at 480 mg/kg intraperitoneally in CD2F1 mice; 6/6. It counts as organism-based. Also on record: dose 480 mg/kg, route intraperitoneal. The settings on record: in vivo, ip.
Series [22] concerns Mus musculus. In words: Toxicity day survivors was determined by the ratio of animals survived to that of test animals at 120 mg/kg intraperitoneally in CD2F1 mice; 6/6. Format: organism-based. Also on record: dose 120 mg/kg, route intraperitoneal. As to conditions: in vivo, ip.
The subject of series [23] is Mus musculus. In words: Body weight change of test animals to that of control was determined after injection at 480 mg/kg intraperitoneally in CD2F1 mice. Format: functional. The settings on record: route intraperitoneal.
Series [24] has as its system Mus musculus. In words: Ratio of treated to that of untreated tumor-bearing control animals at 60 mg/kg intraperitoneally in CD2F1 mice was determined. Format: functional. The settings on record: route intraperitoneal.
Series [25] deals with Mus musculus. Briefly: Toxicity day survivors was determined by the ratio of animals survived to that of test animals at 60 mg/kg intraperitoneally in CD2F1 mice; 6/6. Format: organism-based. The arrangement: dose 60 mg/kg, route intraperitoneal. As to conditions: in vivo, ip.
Series [26] has as its system Mus musculus. In words: Toxicity day survivors was determined by the ratio of animals survived to that of test animals at 240 mg/kg intraperitoneally in CD2F1 mice; 6/6. Format: organism-based. Also on record: dose 240 mg/kg, route intraperitoneal. The settings on record: in vivo, ip.
Series [27] has as its system Mus musculus. Briefly: Net log cell kill was determined after injecting 480 mg/kg intraperitoneally in CD2F1 mice. As to conditions: route intraperitoneal. Format: functional.
For series [28], the system named is Mus musculus. In words: Body weight change of test animals to that of control was determined after injection at 240 mg/kg intraperitoneally in CD2F1 mice. It counts as functional. The settings on record: route intraperitoneal.
In series [29] the test system is Mus musculus. In words: Ratio of treated to that of untreated tumor-bearing control animals at 480 mg/kg intraperitoneally in CD2F1 mice was determined. It counts as functional. As to conditions: route intraperitoneal.
Series [30] relates to Mus musculus. In words: Body weight change of test animals to that of control was determined after injection at 120 mg/kg intraperitoneally in CD2F1 mice. It counts as functional. The settings on record: route intraperitoneal.
Series [31] concerns Mus musculus. In words: Net log cell kill was determined after injecting 60 mg/kg intraperitoneally in CD2F1 mice. It counts as functional. The settings on record: route intraperitoneal.
The subject of series [32] is Mus musculus. In words: Ratio of treated to that of untreated tumor-bearing control animals at 120 mg/kg intraperitoneally in CD2F1 mice was determined. As to conditions: route intraperitoneal. It counts as functional.
The subject of series [33] is Mus musculus. In words: Ratio of treated to that of untreated tumor-bearing control animals at 240 mg/kg intraperitoneally in CD2F1 mice was determined. As to conditions: route intraperitoneal. It counts as functional.
For series [34], the system named is Mus musculus. Briefly: Body weight change of test animals to that of control was determined after injection at 60 mg/kg intraperitoneally in CD2F1 mice. Format: functional. As to conditions: route intraperitoneal.
Series [35] deals with Mus musculus. Briefly: Net log cell kill was determined after injecting 120 mg/kg intraperitoneally in CD2F1 mice. Format: functional. The settings on record: route intraperitoneal.
The subject of series [36] is Mus musculus. In words: Net log cell kill was determined after injecting 240 mg/kg intraperitoneally in CD2F1 mice. As to conditions: route intraperitoneal. Format: functional.

The structures appear in SMILES notation.

In general, T/C refers to the ratio of treated to control. Turning to `COc1ccc2c(c1)CCn1c(C)c(COC(=O)NC(C)C)c(COC(=O)NC(C)C)c1-2`, the T-C is -3 g in series [1]; -1.1 g in series [2]; -2.1 g in [3]; -6.6 g in series [8]; -5.6 g in [11]; -5.3 g in [15]. The TDS was 6 in series [4]; 6 in series [5]; 6 in series [7]; 3 in [10]; 6 in series [12]; 6 in [13]. For the same molecule, the KE was -1.29 in [6], -1.43 in series [17], -1.29 in series [18] and -1.51 in [19]. Further, the T/C in series [9] is 142%; in series [14] it was 153%; in series [16], 136%; in series [20], 153%.

For the molecule `CC(C)NC(=O)OCc1cn2c(c1COC(=O)NC(C)C)-c1cc(Cl)c(Cl)cc1CC2`, the TDS in series [21], in series [22], in [25] and in series [26] was 6 each time. In addition, the T-C is -3.6 g in series [23], -2.3 g in [28], -2.2 g in series [30] and -0.4 g in series [34]. Moreover, the T/C in [24] was determined as 86%; in series [29] it was 185%; in series [32] it was 130%; in [33], 137%. Besides, the KE in [27] is on record as 5.05; in series [31], -1.54; in series [35], -0.68; in series [36], 0.1.

Values taken from ChEMBL document CHEMBL1124001, “Synthesis and antileukemic activity of bis[[(carbamoyl)oxy]methyl]- substituted pyrrolo[2,1-a]isoquinolines, pyrrolo[1,2-a]quinolines, pyrrolo[2,1-a]isobenzazepines, and pyrrolo[1,2-a]benzazepines” (J Med Chem, 1988).
